Experimental data as given in PubChem BioAssay (NCI).
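Interpolation was linear, between the two tested concentrations surrounding the appropriate level; five concentrations were tested over 48 hours in 96-well plates. TGI marks complete inhibition of growth.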

Columns and labels:
Test in all cases: growth of human tumour cells (NCI), 48 h
[1] = system: HT29 colon
[2] = system: SNB-19 CNS
[3] = system: ACHN renal
[4] = system: UACC-62 melanoma
[5] = system: OVCAR-5 ovarian
[6] = system: HOP-62 NSCLC
[7] = system: DLD-1 colon
[8] = system: TK-10 renal
[9] = system: NCI-H460 lung
[10] = system: HOP-92 NSCLC
[11] = system: SR leukemia
[12] = system: KM20L2 colon
[13] = system: M14 melanoma
[14] = system: HL-60(TB) leukemia
[15] = system: COLO 205 colon
[16] = system: K-562 leukemia
[17] = system: HCT-15 colon
[18] = system: OVCAR-4 ovarian
[19] = system: OVCAR-3 ovarian
[20] = system: HCT-116 colon
[21] = system: RPMI-8226 leukemia
[22] = system: SF-539 CNS
[23] = system: MALME-3M melanoma
[24] = system: MOLT-4 leukemia
[25] = system: IGROV1 ovarian
[26] = system: A498 renal
[27] = system: XF 498 CNS
[28] = system: SW-620 colon
[29] = system: KM12 colon
[30] = system: SK-MEL-2 melanoma
[31] = system: CCRF-CEM leukemia
[32] = system: UACC-257 melanoma
[33] = system: NCI-H522 lung
[34] = system: UO-31 renal
[35] = system: OVCAR-8 ovarian
[36] = system: A549 NSCLC
[37] = system: EKVX NSCLC
[38] = system: SK-MEL-28 melanoma
[39] = system: U251 CNS
[40] = system: RXF 393 renal
[41] = system: 786-0 renal
[42] = system: DMS 273 small cell lung
[43] = system: SK-OV-3 ovarian
[44] = system: M19-MEL melanoma
[45] = system: NCI-H226 lung
[46] = system: LOX IMVI melanoma
[47] = system: NCI-H23 lung
[48] = system: SF-268 CNS
[49] = system: LXFL 529 NSCLC
[50] = system: HCC-2998 colon
[51] = system: HOP-18 NSCLC
[52] = system: SF-295 CNS
[53] = system: SN12C renal
[54] = system: SNB-75 CNS
[55] = system: CAKI-1 renal
[56] = system: SK-MEL-5 melanoma
[57] = system: DMS 114 small cell lung
[58] = system: SNB-78 CNS

For `C[C@@H](CC(O)C1OC1(C)C)[C@@H]1CC[C@]2(C)C3=CCC4C(C)(C)C(O)CC[C@]4(C)C3CCC12C` (stereo partly drawn), the TGI [1] was 24.8 µM, the TGI [2] was > 100 µM and the TGI [3] was 88.8 µM. The TGI [4] was 33.6 µM, the TGI [5] was > 100 µM and the TGI [6] was > 100 µM. The TGI [7] was > 100 µM, the TGI [8] was 61.6 µM and the TGI [9] was > 100 µM. The TGI [10] was 41.9 µM, the TGI [11] was > 100 µM and the TGI [12] was 48.6 µM. The TGI [13] was 42.1 µM, the TGI [14] was 24.9 µM and the TGI [15] was 60.7 µM. For the same compound, the TGI [16] was 73.1 µM, the TGI [17] was > 100 µM and the TGI [18] was > 100 µM. The TGI [19] was > 100 µM, the TGI [20] was 31.3 µM and the TGI [21] was > 100 µM. The TGI [22] was 54.4 µM, the TGI [23] was 31.1 µM and the TGI [24] was > 100 µM. For the same compound, the TGI [25] was > 100 µM, the TGI [26] was 77.3 µM and the TGI [27] was 46.4 µM. The TGI [28] was > 100 µM, the TGI [29] was > 100 µM and the TGI [30] was 57.4 µM. The TGI [31] was > 100 µM, the TGI [32] was 41.2 µM and the TGI [33] was 32.6 µM. The TGI [34] was 63.5 µM, the TGI [35] was > 100 µM and the TGI [36] was 32.9 µM. The TGI [37] was > 100 µM, the TGI [38] was 41.9 µM and the TGI [39] was > 100 µM. For the same compound, the TGI [40] was 42.1 µM, the TGI [41] was 33.9 µM and the TGI [42] was 29.2 µM. The TGI [43] was 58.9 µM, the TGI [44] was 49.9 µM and the TGI [45] was 45.3 µM. The TGI [46] was > 100 µM, the TGI [47] was 75.4 µM and the TGI [48] was 85.4 µM. The TGI [49] was 25.6 µM, the TGI [50] was > 100 µM and the TGI [51] was 80.7 µM. The TGI [52] was 40.8 µM and the TGI [53] was > 100 µM.

With `O=C(O)CNS(=O)(=O)c1ccc(NC(=O)c2ccccc2[N+](=O)[O-])cc1` the TGI [1] was > 100 µM, the TGI [2] was > 100 µM and the TGI [3] was > 100 µM. The TGI [4] was > 100 µM, the TGI [5] was > 100 µM and the TGI [54] was > 100 µM. For the same compound, the TGI [7] was > 100 µM, the TGI [8] was > 100 µM and the TGI [9] was > 100 µM. The TGI [10] was > 100 µM, the TGI [12] was > 100 µM and the TGI [13] was > 100 µM. The TGI [14] was > 100 µM, the TGI [15] was > 100 µM and the TGI [16] was > 100 µM. The TGI [17] was > 100 µM, the TGI [18] was > 100 µM and the TGI [21] was > 100 µM. For the same compound, the TGI [22] was > 100 µM, the TGI [23] was > 100 µM and the TGI [24] was > 100 µM. For the same compound, the TGI [25] was > 100 µM, the TGI [26] was > 100 µM and the TGI [27] was > 100 µM. For the same compound, the TGI [28] was > 100 µM, the TGI [30] was > 100 µM and the TGI [31] was > 100 µM. For the same compound, the TGI [32] was > 100 µM, the TGI [33] was > 100 µM and the TGI [55] was > 100 µM. The TGI [56] was > 100 µM, the TGI [34] was > 100 µM and the TGI [35] was > 100 µM. The TGI [36] was > 100 µM, the TGI [37] was > 100 µM and the TGI [38] was > 100 µM. The TGI [39] was > 100 µM, the TGI [40] was > 100 µM and the TGI [41] was > 100 µM. The TGI [42] was > 100 µM, the TGI [43] was > 100 µM and the TGI [44] was > 100 µM. The TGI [46] was > 100 µM, the TGI [47] was > 100 µM and the TGI [48] was > 100 µM. For the same compound, the TGI [49] was > 100 µM, the TGI [51] was > 100 µM and the TGI [53] was > 100 µM.

With `C/C(=N\OCC(O)CNC(C)C)c1ccc2c(c1)NC(=O)CS2` (stereo not drawn) the TGI [1] was > 100 µM, the TGI [2] was > 100 µM and the TGI [3] was > 100 µM. The TGI [4] was > 100 µM, the TGI [5] was > 100 µM and the TGI [54] was > 100 µM. The TGI [57] was > 100 µM, the TGI [6] was > 100 µM and the TGI [7] was > 100 µM. The TGI [8] was > 100 µM, the TGI [9] was > 100 µM and the TGI [10] was > 100 µM. For the same compound, the TGI [12] was > 100 µM, the TGI [13] was > 100 µM and the TGI [15] was > 100 µM. The TGI [16] was > 100 µM, the TGI [17] was > 100 µM and the TGI [18] was > 100 µM. For the same compound, the TGI [19] was > 100 µM, the TGI [20] was > 100 µM and the TGI [22] was > 100 µM. The TGI [23] was > 100 µM, the TGI [24] was > 100 µM and the TGI [26] was > 100 µM. For the same compound, the TGI [27] was > 100 µM, the TGI [58] was > 100 µM and the TGI [28] was > 100 µM. The TGI [29] was > 100 µM, the TGI [30] was > 100 µM and the TGI [31] was > 100 µM. The TGI [32] was > 100 µM, the TGI [33] was > 100 µM and the TGI [56] was > 100 µM. For the same compound, the TGI [34] was > 100 µM, the TGI [35] was > 100 µM and the TGI [36] was > 100 µM. The TGI [37] was > 100 µM, the TGI [38] was > 100 µM and the TGI [39] was > 100 µM. For the same compound, the TGI [40] was > 100 µM, the TGI [41] was > 100 µM and the TGI [43] was > 100 µM. The TGI [44] was > 100 µM, the TGI [45] was > 100 µM and the TGI [46] was > 100 µM. For the same compound, the TGI [47] was > 100 µM, the TGI [48] was > 100 µM and the TGI [49] was > 100 µM. The TGI [50] was > 100 µM, the TGI [51] was > 100 µM and the TGI [52] was > 100 µM. The TGI [53] was > 100 µM.
